In the NIST ThermoML archive (doi:10.1021/je300945r):

F/C=C/C(F)(F)F [trans-1,3,3,3-tetrafluoropropene]
Details | mass density [kg/m3]
343.15 K, 9736 kPa, Liquid, Vibrating tube method | 1068.9
343.15 K, 10753 kPa, Liquid, Vibrating tube method | 1076.1
343.15 K, 11770 kPa, Liquid, Vibrating tube method | 1082.8
343.15 K, 12788 kPa, Liquid, Vibrating tube method | 1089.2
343.15 K, 15829 kPa, Liquid, Vibrating tube method | 1106.7
343.15 K, 17849 kPa, Liquid, Vibrating tube method | 1117.1
343.15 K, 18851 kPa, Liquid, Vibrating tube method | 1122
343.15 K, 19867 kPa, Liquid, Vibrating tube method | 1126.8
343.15 K, 20877 kPa, Liquid, Vibrating tube method | 1131.4
343.15 K, 21883 kPa, Liquid, Vibrating tube method | 1135.8
343.15 K, 22905 kPa, Liquid, Vibrating tube method | 1140.2
343.15 K, 23913 kPa, Liquid, Vibrating tube method | 1144.3
343.15 K, 24913 kPa, Liquid, Vibrating tube method | 1148.4
343.15 K, 25929 kPa, Liquid, Vibrating tube method | 1152.4
343.15 K, 26933 kPa, Liquid, Vibrating tube method | 1156.2
343.15 K, 27938 kPa, Liquid, Vibrating tube method | 1160
343.15 K, 28947 kPa, Liquid, Vibrating tube method | 1163.6
343.15 K, 29953 kPa, Liquid, Vibrating tube method | 1167.2
343.15 K, 30968 kPa, Liquid, Vibrating tube method | 1170.7
343.15 K, 31987 kPa, Liquid, Vibrating tube method | 1174.2
343.15 K, 32989 kPa, Liquid, Vibrating tube method | 1177.5
343.15 K, 33994 kPa, Liquid, Vibrating tube method | 1180.8
343.16 K, 13798 kPa, Liquid, Vibrating tube method | 1095.3
343.16 K, 14817 kPa, Liquid, Vibrating tube method | 1101.1
343.16 K, 16838 kPa, Liquid, Vibrating tube method | 1112
352.95 K, 306.8 kPa, Gas, isochoric method | 12.346
352.96 K, 306.9 kPa, Gas, isochoric method | 12.346
352.99 K, 522.8 kPa, Gas, isochoric method | 21.739
353 K, 191.9 kPa, Gas, isochoric method | 7.634
353 K, 672 kPa, Gas, isochoric method | 28.571
353 K, 672.1 kPa, Gas, isochoric method | 28.571
353 K, 867.3 kPa, Gas, isochoric method | 38.462
353.01 K, 84.1 kPa, Gas, isochoric method | 3.3
353.01 K, 191.9 kPa, Gas, isochoric method | 7.634
353.01 K, 458.4 kPa, Gas, isochoric method | 19.231
353.01 K, 739.8 kPa, Gas, isochoric method | 32.258
353.02 K, 84.1 kPa, Gas, isochoric method | 3.3
353.02 K, 739.8 kPa, Gas, isochoric method | 32.258
353.03 K, 950.8 kPa, Gas, isochoric method | 43.478
353.14 K, 30961 kPa, Liquid, Vibrating tube method | 1149
353.15 K, 2236 kPa, Liquid, Vibrating tube method | 936.2
353.15 K, 9793 kPa, Liquid, Vibrating tube method | 1035.4
353.15 K, 12814 kPa, Liquid, Vibrating tube method | 1058.8
353.15 K, 15825 kPa, Liquid, Vibrating tube method | 1078.4
353.15 K, 16834 kPa, Liquid, Vibrating tube method | 1084.4
353.15 K, 18850 kPa, Liquid, Vibrating tube method | 1095.7
353.15 K, 19865 kPa, Liquid, Vibrating tube method | 1101
353.15 K, 21883 kPa, Liquid, Vibrating tube method | 1111
353.15 K, 22889 kPa, Liquid, Vibrating tube method | 1115.7
353.15 K, 24907 kPa, Liquid, Vibrating tube method | 1124.7
353.15 K, 25928 kPa, Liquid, Vibrating tube method | 1129.2
353.15 K, 26934 kPa, Liquid, Vibrating tube method | 1133.3
353.15 K, 27950 kPa, Liquid, Vibrating tube method | 1137.5
353.15 K, 28953 kPa, Liquid, Vibrating tube method | 1141.4
353.15 K, 29957 kPa, Liquid, Vibrating tube method | 1145.2
353.15 K, 31977 kPa, Liquid, Vibrating tube method | 1152.7
353.15 K, 32983 kPa, Liquid, Vibrating tube method | 1156.3
353.15 K, 33998 kPa, Liquid, Vibrating tube method | 1159.9
353.16 K, 2681 kPa, Liquid, Vibrating tube method | 945.9
353.16 K, 3704 kPa, Liquid, Vibrating tube method | 964.9
353.16 K, 4723 kPa, Liquid, Vibrating tube method | 980.5
353.16 K, 5740 kPa, Liquid, Vibrating tube method | 994
353.16 K, 6749 kPa, Liquid, Vibrating tube method | 1005.9
353.16 K, 7775 kPa, Liquid, Vibrating tube method | 1016.7
353.16 K, 8789 kPa, Liquid, Vibrating tube method | 1026.5
353.16 K, 10794 kPa, Liquid, Vibrating tube method | 1043.6
353.16 K, 11799 kPa, Liquid, Vibrating tube method | 1051.4
353.16 K, 13815 kPa, Liquid, Vibrating tube method | 1065.7
353.16 K, 14816 kPa, Liquid, Vibrating tube method | 1072.2
353.16 K, 17837 kPa, Liquid, Vibrating tube method | 1090.2
353.16 K, 20878 kPa, Liquid, Vibrating tube method | 1106.1
353.16 K, 23896 kPa, Liquid, Vibrating tube method | 1120.3
362.94 K, 86.6 kPa, Gas, isochoric method | 3.3
362.94 K, 316.2 kPa, Gas, isochoric method | 12.346
362.94 K, 316.3 kPa, Gas, isochoric method | 12.346
362.95 K, 473.2 kPa, Gas, isochoric method | 18.868
362.96 K, 197.6 kPa, Gas, isochoric method | 7.634
362.96 K, 473.2 kPa, Gas, isochoric method | 18.868
362.96 K, 540 kPa, Gas, isochoric method | 21.739
362.96 K, 695.3 kPa, Gas, isochoric method | 28.571
362.97 K, 899.7 kPa, Gas, isochoric method | 38.462
362.97 K, 987.6 kPa, Gas, isochoric method | 43.478
362.98 K, 766.3 kPa, Gas, isochoric method | 32.258
362.98 K, 987.6 kPa, Gas, isochoric method | 43.478
372.89 K, 557 kPa, Gas, isochoric method | 21.739
372.9 K, 89.1 kPa, Gas, isochoric method | 3.3
372.9 K, 325.6 kPa, Gas, isochoric method | 12.346
372.9 K, 557 kPa, Gas, isochoric method | 21.739
372.91 K, 203.3 kPa, Gas, isochoric method | 7.634
372.92 K, 792.3 kPa, Gas, isochoric method | 32.258
372.93 K, 488 kPa, Gas, isochoric method | 18.868
372.95 K, 1023.8 kPa, Gas, isochoric method | 43.478
372.95 K, 1023.9 kPa, Gas, isochoric method | 43.478
372.96 K, 931.7 kPa, Gas, isochoric method | 38.462
372.97 K, 718.5 kPa, Gas, isochoric method | 28.571
372.97 K, 718.6 kPa, Gas, isochoric method | 28.571
